Here are results for 14 compounds from patent publication EP4725941A1, “ARYLAMIDE DERIVATIVE HAVING ANTITUMOR ACTIVITY” (priority 2020, dated 2021).

One data set addresses T1, MEK1 (Homo sapiens, UniProt Q02750).
T1 construct: purchased Thermo Fisher Scientific Inc. (MEK1, CRAF); Carna Biosciences, Inc. (ERK2)
Description: MEK1-inhibiting activity, fluorescent polarization method (CRAF/MEK1/ERK2 cascade, IMAP). The settings on record: Table 3; read-out: MEK1 IC50. It is filed as biochemical. The procedure: The MEK1-inhibiting activity of the compounds listed in Table 3 below were evaluated by the fluorescent polarization method as described below.

Data set [1] in a line: Human liver microsome stability. It is filed as in vitro ADME. The settings on record: human liver microsomes, pH 7.4.
For another data set, the system named is A549. Description: Cell proliferation-inhibiting activity (ATP in viable cells, CellTiter-Glo), A549. The settings on record: A549, 96 h; human lung cancer cells, 4 days; read-out: A549 IC50. It is filed as cell-based, human.
The next data set addresses T2, BRAF (Homo sapiens, UniProt P15056).
T2 construct: purchased Eurofins Genomics KK; (BRAF); Thermo Fisher Scientific Inc. (MEK1)
Description: BRAF-inhibiting activity, time-resolved fluorescence-fluorescence resonance energy transfer assay. It is filed as biochemical. As to conditions: read-out: BRAF IC50; Table 3. The procedure: The BRAF-inhibiting activity of the compounds listed in Table 3 below was evaluated by the time-resolved fluorescence-fluorescence resonance energy transfer assay as described below.

Another data set concerns NCI-H2122. Description: Cell proliferation-inhibiting activity (ATP in viable cells, CellTiter-Glo), NCI-H2122. As to conditions: NCI-H2122, 96 h; human lung cancer cells, 4 days; read-out: NCI-H2122 IC50. Type of data set: cell-based, human. (In general: ATP-based viability assays read luminescence as a measure of living cells.)
A further data set concerns Calu-6. Description: Cell proliferation-inhibiting activity (ATP in viable cells, CellTiter-Glo), Calu-6. The settings on record: Calu-6, 96 h; human lung cancer cells, 4 days; read-out: Calu-6 IC50. It is filed as cell-based, human.

Where only a bound is given, the exact number is not on record here.

T2 sequence (P15056 417-766 limits assumed): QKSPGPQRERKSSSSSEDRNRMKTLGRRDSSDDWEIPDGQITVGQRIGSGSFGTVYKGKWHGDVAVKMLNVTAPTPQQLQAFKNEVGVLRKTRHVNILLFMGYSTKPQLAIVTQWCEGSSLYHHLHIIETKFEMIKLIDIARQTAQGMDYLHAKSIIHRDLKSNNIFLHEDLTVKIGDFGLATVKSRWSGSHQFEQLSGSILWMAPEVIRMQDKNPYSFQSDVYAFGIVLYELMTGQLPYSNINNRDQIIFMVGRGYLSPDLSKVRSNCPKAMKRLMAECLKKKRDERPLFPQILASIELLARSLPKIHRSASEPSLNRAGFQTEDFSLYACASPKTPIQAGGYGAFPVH
T1 sequence (Q02750 whole entry): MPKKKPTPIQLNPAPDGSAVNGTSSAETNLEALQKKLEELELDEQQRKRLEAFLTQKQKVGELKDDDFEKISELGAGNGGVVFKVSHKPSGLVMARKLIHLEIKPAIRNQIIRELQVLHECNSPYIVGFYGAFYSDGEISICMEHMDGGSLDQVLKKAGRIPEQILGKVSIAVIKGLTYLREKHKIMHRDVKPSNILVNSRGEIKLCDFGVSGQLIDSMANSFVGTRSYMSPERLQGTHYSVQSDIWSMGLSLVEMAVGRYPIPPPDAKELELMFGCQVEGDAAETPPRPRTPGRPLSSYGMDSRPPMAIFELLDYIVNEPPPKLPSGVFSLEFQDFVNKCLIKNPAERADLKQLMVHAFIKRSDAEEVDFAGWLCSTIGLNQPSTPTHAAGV

Take `CCS(=O)(=O)Nc1cccc(Cc2cc(C(=O)NOC(C)(C)C)c(Nc3ccc(I)cc3F)c(F)c2F)c1F` [Compound E-2, 5-[[3-(Ethylsulfonylamino)-2-fluorophenyl]methyl]-3,4-difluoro-2-(2-fluoro-4-iodoanilino)-N-[(2-methylpropan-2-yl)oxy]benzamide]: the IC50 (commonly the midpoint of a concentration-inhibition curve) on MEK1 is 86 nM; with A549, 6 nM; on BRAF it was 22 nM; in the data set on NCI-H2122, 2 nM; in the data set with Calu-6, 19 nM. Further, in data set [1], the microsomal CLint (in general, the rate of metabolic loss divided by the concentration) at 0.99 µM is 42 µL/min/mg.
As to `COCC1(S(=O)(=O)Nc2cccc(Cc3cc(C(=O)NOC(C)(C)C)c(Nc4ccc(I)cc4F)c(F)c3F)c2F)CC1` [Compound E-4], the IC50 on MEK1 is 131 nM; in the data set on A549, 6 nM; on BRAF it was 11 nM; with NCI-H2122, 5 nM; with Calu-6, 26 nM. The compound also showed an intrinsic metabolic clearance (microsomal CLint) at 0.99 µM in data set [1] of 168 µL/min/mg.
For the compound `CONC(=O)c1cc(Cc2cccc(NS(=O)(=O)C3(C)CC3)c2F)c(F)c(F)c1Nc1ccc(I)cc1F` [Compound E-5, 3,4-Difluoro-2-(2-fluoro-4-iodoanilino)-5-[[2-fluoro-3-[(1-methylcyclopropyl)sulfonylamino]phenyl]methyl]-N-methoxybenzamide], the IC50 at MEK1 worked out at 19 nM; with A549, 5 nM; on BRAF, 8 nM; in the data set with NCI-H2122 it was 3 nM; in the data set on Calu-6, 17 nM. Moreover, the microsomal CLint at 0.99 µM in data set [1] was 78 µL/min/mg.
For the compound `CC(C)(C)ONC(=O)c1cc(Cc2cccc(NS(=O)(=O)C3(C)CC3)c2F)c(F)c(F)c1Nc1ccc(I)cc1F` [Compound E-6, 3,4-Difluoro-2-(2-fluoro-4-iodoanilino)-5-[[2-fluoro-3-[(1-methylcyclopropyl)sulfonylamino]phenyl]methyl]-N-[(2-methylpropan-2-yl)oxy]be nzamide], the IC50 on MEK1 is 34 nM; in the data set on A549, 8 nM; on BRAF, 17 nM; in the data set with NCI-H2122, 6 nM; with Calu-6 it was 28 nM. In data set [1], this compound displayed an intrinsic clearance (microsomal CLint) at 0.99 µM of 105 µL/min/mg.
As to `CNS(=O)(=O)Nc1cccc(Cc2cc(C(N)=O)c(Nc3ccc(I)cc3F)c(F)c2F)c1F` [Compound E-7, 3,4-difluoro-2-(2-fluoro-4-iodoanilino)-5-[[2-fluoro-3-(methylsulfamoylamino)phenyl]methyl]benzamide], the IC50 was 334 nM at MEK1; 1 nM in the data set on A549; 6 nM at BRAF; 0.4 nM with NCI-H2122; 8 nM in the data set on Calu-6. The compound further gave a microsomal CLint at 0.99 µM in data set [1] of 5 µL/min/mg.
Take `CCS(=O)(=O)Nc1cccc(Cc2cc(C(=O)NOC)c(Nc3ccc(I)cc3Cl)c(F)c2F)c1F` [Compound E-9, 2-(2-chloro-4-iodoanilino)-5-[[3-(ethylsulfonylamino)-2-fluorophenyl]methyl]-3,4-difluoro-N-methoxybenzamide]: the IC50 is 95 nM on MEK1; 7 nM in the data set on A549; 11 nM at BRAF; 6 nM in the data set on NCI-H2122; 57 nM in the data set on Calu-6. This compound showed a microsomal CLint at 0.99 µM in data set [1] of 13 µL/min/mg.
Turning to `CCS(=O)(=O)Nc1cccc(Cc2cc(C(=O)NOC(C)(C)C)c(Nc3ccc(I)cc3Cl)c(F)c2F)c1F` [Compound E-10, 2-(2-Chloro-4-iodoanilino)-5-[[3-(ethylsulfonylamino)-2-fluorophenyl]methyl]-3.4-difluoro-N-[(2-methylpropan-2-yl)oxy]benzamide], the concentration for half-maximal inhibition (IC50) turned out to be 84 nM on MEK1; 4 nM in the data set on A549; 23 nM at BRAF; 3 nM in the data set on NCI-H2122; 27 nM in the data set with Calu-6. The microsomal CLint at 0.99 µM in data set [1] was determined as 51 µL/min/mg.
Turning to `CCS(=O)(=O)Nc1cccc(Cc2cc(C(N)=O)c(Nc3ccc(I)cc3Cl)c(F)c2F)c1F` [Compound E-11, 2-(2-Chloro-4-iodoanilino)-5-[[3-(ethylsulfonylamino)-2-fluorophenyl]methyl]-3,4-difluorobenzamide], the IC50 at MEK1 came out at 454 nM; in the data set with A549 it was 6 nM; at BRAF it was 5 nM; in the data set on NCI-H2122, 6 nM; in the data set on Calu-6 it was 73 nM. Further, the microsomal CLint at 0.99 µM in data set [1] came out at 11 µL/min/mg.
Turning to `CC(C)(C)ONC(=O)c1cc(Cc2cccc(NS(=O)(=O)NC3CC3)c2F)c(F)c(F)c1Nc1ccc(I)cc1Cl` [Compound E-12, 2-(2-Chloro-4-iodoanilino)-5-[[3-(cyclopropylsulfamoylamino)-2-fluor ophenyl]methyl]-3,4-difluoro-N-[(2-methylpropan-2-yl)oxy]benzamide], the half-inhibitory concentration (IC50) was 260 nM at MEK1; 3 nM in the data set with A549; 17 nM at BRAF; 2 nM in the data set on NCI-H2122; 8 nM with Calu-6. Further, the microsomal CLint at 0.99 µM in data set [1] is 160 µL/min/mg.
Take `NC(=O)c1cc(Cc2cccc(NS(=O)(=O)CC3CC3)c2F)c(F)c(F)c1Nc1ccc(I)cc1F` [Compound E-14, 5-[[3-(Cyclopropylmethylsulfonylamino)-2-fluorophenyl]methyl]-3,4-di fluoro-2-(2-fluoro-4-iodoanilino)benzamide]: the concentration for half-maximal inhibition (IC50) at MEK1 was determined as 343 nM; in the data set with A549, 13 nM; on BRAF, 17 nM; with NCI-H2122, 7 nM; in the data set on Calu-6, 71 nM. This compound also returned a microsomal CLint at 0.99 µM in data set [1] of 22 µL/min/mg.
Take `CC1(S(=O)(=O)Nc2cccc(Cc3cc(C(N)=O)c(Nc4ccc(I)cc4F)c(F)c3F)c2F)CC1` [Compound E-16, 3,4-Difluoro-2-(2-fluoro-4-iodoanilino)-5-[[2-fluoro-3-[(1-methylcyclopropyl)sulfonylamino]phenyl]methyl]benzamide]: the half-maximal inhibitory concentration (IC50) on MEK1 was 352 nM; in the data set with A549, 33 nM; at BRAF, 12 nM; with NCI-H2122 it was 7 nM; in the data set with Calu-6, 87 nM. Also, the microsomal CLint at 0.99 µM in data set [1] was < 1 µL/min/mg.
Regarding `CC(C)CS(=O)(=O)Nc1cccc(Cc2cc(C(N)=O)c(Nc3ccc(I)cc3F)c(F)c2F)c1F` [Compound E-17, 3,4-Difluoro-2-(2-fluoro-4-iodoanilino)-5-[[2-fluoro-3-(2-methylpropylsulfonylamino)phenyl]methyl]benzamide], the IC50 was 199 nM on MEK1; 31 nM with A549; 6 nM on BRAF; 7 nM in the data set with NCI-H2122; 110 nM in the data set on Calu-6. This compound registered an intrinsic clearance (microsomal CLint) at 0.99 µM in data set [1] of 24 µL/min/mg.
`COCC1(S(=O)(=O)Nc2cccc(Cc3cc(C(N)=O)c(Nc4ccc(I)cc4F)c(F)c3F)c2F)CC1` [Compound E-19]: the IC50 at MEK1 was found to be 332 nM; in the data set on A549 it was 9 nM; on BRAF, 34 nM; in the data set on NCI-H2122, 9 nM; in the data set with Calu-6, 87 nM. The intrinsic clearance (microsomal CLint) at 0.99 µM in data set [1] came out at 115 µL/min/mg.
Regarding `NC(=O)c1cc(Cc2cccc(NS(=O)(=O)C3CC3)c2F)c(F)c(F)c1Nc1ccc(I)cc1F` [Compound E-22, 5-[[3-(Cyclopropylsulfonylamino)-2-fluorophenyl]methyl]-3,4-difluoro-2-(2-fluoro-4-iodoanilino)benzamide], the 50% inhibitory concentration (IC50) on MEK1 is 302 nM; in the data set with A549 it was 6 nM; on BRAF it was 4 nM; in the data set on NCI-H2122, 3 nM; in the data set with Calu-6, 87 nM. Also, the microsomal CLint at 0.99 µM in data set [1] came out at 18 µL/min/mg.
